ChEMBL document CHEMBL2150874, “Novel and selective inhibitors of histone deacetylase: patent highlight” (ACS Med Chem Lett, 2012)

Experiments:
[1] = target: T1, Protein deacetylase HDAC6 (Homo sapiens, UniProt Q9UBN7); test: Inhibition of HDAC6
T1 sequence (Q9UBN7 whole entry): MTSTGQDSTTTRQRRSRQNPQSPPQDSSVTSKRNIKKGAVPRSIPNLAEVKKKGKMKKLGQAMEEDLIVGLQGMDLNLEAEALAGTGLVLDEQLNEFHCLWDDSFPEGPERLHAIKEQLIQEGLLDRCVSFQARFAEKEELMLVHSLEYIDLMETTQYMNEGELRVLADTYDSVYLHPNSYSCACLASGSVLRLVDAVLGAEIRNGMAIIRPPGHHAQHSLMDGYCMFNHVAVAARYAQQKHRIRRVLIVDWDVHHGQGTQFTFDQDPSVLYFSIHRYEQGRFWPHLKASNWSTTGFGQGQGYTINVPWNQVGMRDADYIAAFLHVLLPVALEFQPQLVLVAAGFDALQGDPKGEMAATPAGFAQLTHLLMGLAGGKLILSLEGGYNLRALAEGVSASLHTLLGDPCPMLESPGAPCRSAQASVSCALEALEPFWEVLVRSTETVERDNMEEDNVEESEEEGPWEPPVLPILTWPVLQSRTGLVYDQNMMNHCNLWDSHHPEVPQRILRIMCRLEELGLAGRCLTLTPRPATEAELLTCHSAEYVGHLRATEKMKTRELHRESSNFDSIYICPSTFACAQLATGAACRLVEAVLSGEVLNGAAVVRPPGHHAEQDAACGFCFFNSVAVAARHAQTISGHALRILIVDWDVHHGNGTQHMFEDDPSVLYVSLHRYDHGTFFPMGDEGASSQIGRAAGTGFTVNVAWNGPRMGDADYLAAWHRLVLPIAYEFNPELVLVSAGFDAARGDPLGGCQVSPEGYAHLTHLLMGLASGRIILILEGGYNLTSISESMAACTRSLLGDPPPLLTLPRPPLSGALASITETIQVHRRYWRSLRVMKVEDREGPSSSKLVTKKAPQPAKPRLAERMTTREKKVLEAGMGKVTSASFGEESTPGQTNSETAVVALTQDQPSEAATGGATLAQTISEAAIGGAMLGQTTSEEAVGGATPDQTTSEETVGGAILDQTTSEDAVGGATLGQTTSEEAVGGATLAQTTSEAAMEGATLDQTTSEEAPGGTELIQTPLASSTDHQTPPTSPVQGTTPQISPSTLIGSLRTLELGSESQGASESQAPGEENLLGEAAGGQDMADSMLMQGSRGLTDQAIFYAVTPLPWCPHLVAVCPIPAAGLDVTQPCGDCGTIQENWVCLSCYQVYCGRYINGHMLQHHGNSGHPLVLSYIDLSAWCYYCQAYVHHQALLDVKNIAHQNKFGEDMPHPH

[2] = test system: PC-12; test: Neuroprotective activity in rat PC12 cells at 1 uM by lactate dehydrogenase assay; format: functional

Row | SMILES | IC50 [1] | Activity [2]
1 | O=C(NO)c1ccc2c(c1)CN(C(=O)/C(=C/c1ccccc1)c1ccccc1)CC2 | < 1 nM | 36.6%
2 | COc1cc(/C=C(/C(=O)N2CCc3ccc(C(=O)NO)cc3C2)c2ccc(F)cc2)ccc1F | < 1 nM | 67.2%
3 | Cc1ccc(/C(=C\c2ccc(F)cc2)C(=O)N2CCc3ccc(C(=O)NO)cc3C2)cc1 | < 1 nM | 100%
4 | O=C(NO)c1ccc2c(c1)CN(C(=O)/C(=C/c1ccccc1)c1cccc(Cl)c1)CC2 | < 1 nM | 77.8%
5 | COc1ccc(/C=C(/C(=O)N2CCc3ccc(C(=O)NO)cc3C2)c2ccc(F)cc2)c(OC)c1 | < 1 nM | 38%
6 | COc1ccc(/C=C(/C(=O)N2CCc3ccc(C(=O)NO)cc3C2)c2ccccc2)cc1 | < 1 nM | 55%

More lines, main results first:

Row | IC50 [1] | SMILES | Activity [2]
7 | < 1 nM | O=C(NO)c1ccc2c(c1)CN(C(=O)/C(=C/c1cccs1)c1ccc(F)cc1)CC2 | 71.8%
8 | < 1 nM | Cc1ccc(/C(=C\c2ccccc2)C(=O)N2CCc3ccc(C(=O)NO)cc3C2)cc1 | 68.7%
9 | < 1 nM | COc1ccc(/C=C(/C(=O)N2CCc3ccc(C(=O)NO)cc3C2)c2ccccc2F)cc1OC | 100%
10 | < 1 nM | O=C(NO)c1ccc2c(c1)CN(C(=O)/C(=C/c1ccc(F)cc1F)c1ccc(F)cc1)CC2 | 56%
